Measured values: patent US20110151025A1, “Compositions Comprising N-Halogenated or N,N-Dihalogenated Amine for Treatment and Prophylaxis of Bronchopulmonary Infections” (NOVABAY PHARMACEUTICALS, INC., priority 2008, published 2011)
“Also recorded” adds a separate entry of the source. Where two headings read alike, the source gives them in different places.

Legend:
[1] = system: external otitis; conditions: human external otitis; cited from earlier work
[2] = system: viral bronchitis; assay: Inhalation of 1% NCT by human volunteers suffering from viral bronchitis; assay type: in vivo
[3] = system: omniresistant Pseudomonas aeruginosa; conditions: NCT irrigations, three patients; cited from earlier work
[4] = purulent coated crural ulcers; cited from earlier work
[5] = Intraperitoneal injection in Swiss mice; assay type: in vivo; conditions: 1% NCT
Description: NCT is relatively safe and well-tolerated by mammals. For example, as a mild oxidant, tolerability of 1% aqueous NCT solution by human and animal tissue is good.

[6] = Tolerability of inhaled haloamines in anesthetized pig model; conditions: for Arterial partial pressure of oxygen (PaO2) compared to controls: 4 inhalations of 5 mL, hourly over 4 hours; for Heart rate compared to controls: 4 hours measurement
Description: A study was designed to evaluate the tolerability of inhalative haloamines in a pig model. NCT was used as a representative haloamine. Anesthetized pigs inhaled test solutions of 1% NCT (n=7), 5% NCT (n=6), or 1% NCT plus 1% ammonium chloride (n=6), and 0.9% saline solution as a control (n=7), respectively. Applications were performed every hour over a four-hour time period, i.e., four inhalations in total, with 5 mL each.
Anesthetized pigs inhaled test solutions of 1% NCT (n=7), 5% NCT (n=6), or 1% NCT plus 1% ammonium chloride (n=6), and 0.9% saline solution as a control (n=7), respectively. Applications were performed every hour over a four-hour period, i.e., 4 inhalations in total, with 5 mL each.
Anesthetized pigs inhaled test solutions of 1% NCT (n=7), 5% NCT (n=6), or 1% NCT plus 1% ammonium chloride (n=6), and 0.9% saline solution as a control (n=7), respectively. Applications were performed every hour within four hours, i.e., 4 inhalations in total, with 5 mL each.
Anesthetized pigs inhaled test solutions of 1% NCT (n=7), 5% NCT (n=6), or 1% NCT plus 1% ammonium chloride (n=6), and 0.9% saline solution as a control (n=7), respectively. Applications were performed every hour over a four-hour period of time, i.e., 4 inhalations in total, with 5 mL each.

[7] = transtympanal injection of 0.1%, 1%, and 10% NCT, mice; cited from earlier work
[8] = system: Staphylococcus aureus; conditions: local administration, mouse model; cited from earlier work
[9] = system: all classes of pathogens; conditions: cited from earlier work
[10] = chronic rhinosinusitis, pilot study; cited from earlier work
[11] = 1% aqueous NCT solution, human eyes; cited from earlier work
[12] = system: proinflammatory cytokines; conditions: cited from earlier work
[13] = system: infectious conjunctivitis; conditions: in vivo; cited from earlier work
[14] = 1% aqueous NCT solution, rabbit eyes; cited from earlier work

Structure (SMILES): O=S(=O)(O)CCNCl [NCT, N-chlorotaurine]
- Efficacy versus standard medication [1]: more effective than a standard medication
- Symptoms experienced by patients ([2]; 5 mL of 1% NCT inhaled for 10 minutes 3 times daily for three days): easier breathing, less coughing and less expectoration
- Side effects (symptoms for bronchoconstriction, cough, dyspnea) ([2]; 5 mL of 1% NCT inhaled for 10 minutes 3 times daily for three days, three volunteers): no side effects detectable
- Development of bronchitis after pharyngitis ([2]; one patient, NCT used as a treatment for pharyngitis): did not develop bronchitis
- Eradication of bacteria from the urinary bladder [3]: possible to eradicate bacteria
- Pain versus chloramine T [4]: significantly less pain
- Toxicity versus chloramine T [4]: less toxic than chloramine T
- Tolerated intraperitoneal dose [5]: tolerated up to one mL 1% NCT
- Pulmonary artery pressure compared to saline group ([6]; 1% NCT): tended to result in even better values
- Alveolo-arterial difference of oxygen partial pressure (AaDO2) ([6]; 1% NCT, 4-hour measurement, controls 33.7±9.03, p=0.016): 21.0±13.09
- Arterial partial pressure of oxygen (PaO2) compared to controls ([6]; 1% NCT): No difference in PaO2 to controls
- Heart rate compared to controls ([6]; 1% NCT): not significantly different from controls
- Tolerability in the bronchopulmonary system upon inhalation ([6]; 1% NCT, conclusion from pig and volunteer results): very well tolerated
- Pulmonary artery pressure compared to controls ([6]; 5% NCT): became higher than in the control group; also recorded: significantly higher values
- Tolerability upon inhalation ([6]; 5% NCT): very well tolerated
- Alveolo-arterial difference of oxygen partial pressure (AaDO2) compared to the controls ([6]; 5% NCT (p=0.99)): not different
- Arterial partial pressure of oxygen (PaO2) compared to controls ([6]; 5% NCT): No difference in PaO2 to controls
- Heart rate compared to controls ([6]; 5% NCT): not significantly different from controls
- Damage of the inner ear [7]: did not cause damage of the inner ear
- Inhibition of septic arthritis [8]: inhibited septic arthritis
- Antimicrobial spectrum [9]: broad-spectrum antimicrobial activity
- Induction of resistance of pathogens [9]: resistance of pathogens is not induced
- Tolerability [10]: good tolerability
- Tolerability [11]: good
- Effect on proinflammatory cytokines [12]: down-regulate proinflammatory cytokines
- Efficacy in infectious conjunctivitis [13]: data indicating efficacy
- Tolerability [14]: good
